Data on 2 molecules can be found in patent US20260355154A1, “IMPLANTS, COMPOSITIONS, AND METHODS FOR TREATING RETINAL DISEASES AND DISORDERS” (Osanni Bio, Inc., priority 2024, published 2026).

The test system of data set [1] is human embryonic stem-cell derived retinal pigmented epithelium (hESC-RPE). The data set is described as follows: Drusen in vitro assay: APOE/APOE4 deposition induced by 5% human serum. The data set is classed as cell-based. The settings on record: for minimal effective concentration: Embryonic stem cell, hESC-RPE, 24 h pre-incubation, then 48 h with 5% human serum. As for the experimental part: (§1) Retinal Pigmented Epithelium Cell Culture: Human embryonic stem-cell derived retinal pigmented epithelium (hESC-RPE) were cultured on Transwell inserts for at least 4 weeks in serum-free XVIVO culture medium. After 4 weeks, polygonal, pigmented monolayers of hESC-RPE were visualized by phase contrast and bright-field microscopy, indicating appropriately matured RPE cells. Drusen assay experiments were performed after the initial 4-week maturation period.
Drusen Assay: Matured hESC-RPE monolayers were incubated with 5% complement competent human serum (HS) for 48 hours to elicit Drusen formation. After the 48 hour HS incubation period, hESC-RPE monolayers (whole inserts) were fixed with 4% paraformaldehyde for 10 minutes at room temperature. Following fixation, inserts were individually removed from plates and cut out of their holders using a scalpel yielding individual membranes with hESC-RPE monolayers. Membranes were transferred to 24-well plates for storage in phosphate buffered saline with calcium and magnesium (PBS+/+).
Drusen Assay with Atorvastatin Treatment: Matured hESC-RPE inserts were pre-incubated with varying concentrations of atorvastatin (ranging from […]) in both the top and bottom insert compartments for 24 hours in an incubator set at 37 °C with 5% CO2. On the following day, medium was exchanged with fresh culture medium containing atorvastatin and 5% HS and incubated for an additional 48 hours in an incubator set at 37 °C with 5% CO2. After 48 hour incubation period, inserts were fixed and processed for antibody staining.
Fixed membranes were incubated with block solution containing 1% bovine serum albumin (BSA) and 0.1% Triton X in PBS+/+ for 1 hr at room temperature. After the block incubation period, membranes were incubated overnight at 4 °C with primary antibody solution containing 1% BSA and goat anti-APOE4 antibody (1:250) and mouse anti-C5b9 antibody (1:250). On the following day, membranes were washed thrice for 10 min with PBS+/+ and incubated with secondary antibody solution containing 1% BSA and AlexaFluor donkey anti-goat 546 (1:200) and AlexaFluor donkey anti-mouse 488 (1:200) for 1 hr at room temperature in the dark. Following secondary antibody incubation period, membranes were washed thrice for 10 min with PBS+/+ and counterstained with Hoechst solution (1:1000) in PBS+/+ for 10 min at room temperature. Membranes were then transferred to microscope slides and mounted using ProLong Gold anti-fade solution and coverslips. Slides were imaged using a Leica SP8 Scanning Resonant Confocal Microscope using identical settings and laser power. At least 3 fields of view were collected per sample.
Image quantification and figure preparation: Fiji (Image J) software was used for processing all the images. All images were processed with the parameters described below: Contrast adjustment—the value of contrast for the APOE4 channel was set to 90-230 to improve the accuracy of object observation. Thresholding—the cutoff value of the threshold for the APOE4 channel was set as 100 to 255 to identify the pixels as real expressions. Size-Particles with an area larger than 1.5 A.U. were counted as true APOE4 expressions to minimize the likelihood of false positives in the image. Measurements, including deposit counts and the total area, were then exported as a .csv file for analysis. All images were taken in triplicate per treatment. Results are presented as mean±SEM and were graphed using Graph Pad PRISM v6. Statistical significance was established using one-way ANOVA tests followed by Tukey's multiple comparisons test.

For data set [2] the test system is unchanged. Put plainly: Complement activity: C5b-9 immunostaining in human serum-treated hESC-RPE. The data set is classed as cell-based. The settings on record: increasing concentrations of atorvastatin; 5% human serum; FIG. 4. As for the experimental part:
as §1
Drusen Assay: Matured hESC-RPE monolayers were incubated with 5% complement competent human serum (HS) for 48 hours to elicit Drusen formation. After the 48 hour HS incubation period, hESC-RPE monolayers (whole inserts) were fixed with 4% paraformaldehyde for 10 minutes at room temperature. Following fixation, inserts were individually removed from plates and cut out of their holders using a scalpel yielding individual membranes with hESC-RPE monolayers. Membranes were transferred to 24-well plates for storage in phosphate buffered saline with calcium and magnesium (PBS+/+). […]
Image quantification and figure preparation: Fiji (Image J) software was used for processing all the images. […] Size-Particles with an area larger than 1.5 A.U. were counted as true APOE4 expressions to minimize the likelihood of false positives in the image. […]

For data set [3] the following is noted: cited from earlier work.
Data set [4] has as its system eye. The following applies: applied topically in the eye; Grant, Toxicology of the Eye; cited from earlier work.

Read-outs that look alike come from different tables or passages of the source.

Regarding `CC(C)c1c(C(=O)Nc2ccccc2)c(-c2ccccc2)c(-c2ccc(F)cc2)n1CC[C@@H](O)C[C@@H](O)CC(=O)O` [Atorvastatin, atorvastatin], the minimal effective concentration in data set [1] (read-out: concentration from which APOE deposition area decreased (starting at)) is 0.37 µM; in data set [1] (read-out: concentration from which total counts of APOE deposits decreased (starting at)), 0.123 µM. Besides, in data set [1] (higher ATV concentrations (above 123 nM), 5% human serum, 48 h), the “total counts of APOE deposits at higher ATV concentrations” value is reported as “nearly complete elimination”. The “APOE deposition area at higher ATV concentrations” value in data set [1] (higher ATV concentrations (above 370 nM), 5% human serum, 48 h) is “nearly complete elimination”. Also, the “APOE deposition (area)” value in data set [1] (increasing atorvastatin concentrations, 5% human serum, 48 h) is recorded as “reduced APOE deposition dose-dependently”. Besides, the “total counts of APOE deposition” value in data set [1] (increasing atorvastatin concentrations, 5% human serum, 48 h, FIG. 3) is reported as “reduced the total counts of APOE deposition dose-dependently”. Besides, in data set [1] (increasing concentrations of atorvastatin, 5% human serum, FIG. 3), the “expression of APOE4 per field of view” value was “decreased expression of APOE4”. For the same molecule, the “C5b-9 expression / C5b-9 positive puncta per field of view” value in data set [2] was “reduces APOE4 and C5b-9 expression”.

Turning to `O=C(OCc1ccccc1)c1ccccc1` [Benzyl benzoate], in data set [3] (in vivo, Handbook of Pesticide Toxicology), the in vivo metabolism result is “hydrolyzed to benzoic acid and benzyl alcohol”. The excretion result in data set [3] (urine, after oxidation of benzyl alcohol to benzoic acid and conjugation with glucuronic acid) was “excreted in the urine as benzoylglucuronic acid”. For the same molecule, in data set [3] (urine, to a lesser extent, benzoic acid conjugated with glycine), the “excretion (minor route)” value was “excreted in the urine as hippuric acid”. Also, the “eye damage on topical application” value in data set [4] is “no damage”.
